Reference: patent US20060019885A1, “Modified bryodin 1 with reduced immunogenicity” (priority 2002, published 2006)

Test system: peripheral blood mononuclear cells (PBMCs), containing antigen presenting cells (APCs) and T-cells
Assay: naïve human T-cell proliferation assay (3H-thymidine incorporation, stimulation index)
Type: cell-based
Settings: for predicted ranking of the most immunodominant regions: from numbers of responding naïve donors and crystallographic B-factor analysis; for number of donor samples reactive / percent of donor samples reactive: of 21 naïve donor PBMC samples, positive response SI>2
Text: This approach has proven to be a particularly effective method and is disclosed herein as an embodiment of the invention. The method can be applied to test part of the sequence, for example a sub-set of bryodin 1 peptides such as all or some of those listed in FIG. 1; or the method may be applied to test entire sequence. In the present studies, the method has involved the testing of overlapping bryodin 1 derived peptide sequences in a scheme so as to scan and test the entire bryodin 1 sequence (including peptides representing the N-terminal pro-pepeptide). The synthetic peptides are tested for their ability to evoke a proliferative response in human T-cell cultured in vitro. Where this type of approach is conducted using naïve human T-cells taken from healthy donors, the inventors have established that in the operation of such an assay, a stimulation index equal to or greater than 2.0 is a useful measure of induced proliferation. The stimulation index is conventionally derived by division of the proliferation score (e.g. counts per minute of radioactivity if using ^3H-thymidine incorporation) measured to the test peptide by the score measured in cells not contacted with a test peptide.
The interaction between MHC, peptide and T-cell receptor (TCR) provides the structural basis for the antigen specificity of T-cell recognition. T-cell proliferation assays test the binding of peptides to MHC and the recognition of MHC/peptide complexes by the TCR. In vitro T-cell proliferation assays of the present example, involve the stimulation of peripheral blood mononuclear cells (PBMCs), containing antigen presenting cells (APCs) and T-cells. Stimulation is conducted in vitro using synthetic peptide antigens, and in some experiments whole protein antigen. Stimulated T-cell proliferation is measured using ^3H-thymidine (^3H-Thy) and the presence of incorporated ^3H-Thy assessed using scintillation counting of washed fixed cells.
Buffy coats from human blood stored for less than 12 hours were obtained from the National Blood Service (Addenbrooks Hospital, Cambridge, UK). Ficoll-paque was obtained from Amersham Pharmacia Biotech (Amersham, UK). Serum free AIM V media for the culture of primary human lymphocytes and containing L-glutamine, 50 μg/ml streptomycin, 10 μg/ml gentomycin and 0.1% human serum albumin was from Gibco-BRL (Paisley, UK). Synthetic peptides were obtained from Eurosequence (Groningen, The Netherlands) and Babraham Technix (Cambridge, UK).
Erythrocytes and leukocytes were separated from plasma and platelets by gentle centrifugation of buffy coats. The top phase (containing plasma and platelets) was removed and discarded. Erythrocytes and leukocytes were diluted 1:1 in phosphate buffered saline (PBS) before layering onto 15 ml ficoll-paque (Amersham Pharmacia, Amersham UK). Centrifugation was done according to the manufacturers recommended conditions and PBMCs were harvested from the serum+PBS/ficoll paque interface. PBMCs were mixed with PBS (1:1) and collected by centrifugation. The supernatant was removed and discarded and the PBMC pellet resuspended in 50 ml PBS. Cells were again pelleted by centrifugation and the PBS supernatant discarded. Cells were resuspended using 50 ml AIM V media and at this point counted and viability assessed using trypan blue dye exclusion. Cells were again collected by centrifugation and the supernatant discarded. Cells were resuspended for cryogenic storage at a density of 3×10^7 per ml. The storage medium was 90% (v/v) heat inactivated AB human serum (Sigma, Poole, UK) and 10% (v/v) DMSO (Sigma, Poole, UK). Cells were transferred to a regulated freezing container (Sigma) and placed at −70° C. overnight. When required for use, cells were thawed rapidly in a water bath at 37° C. before transferring to 10 ml pre-warmed AIM V medium.
PBMC were stimulated with protein and peptide antigens in a 96 well flat bottom plate at a density of 2×10^5 PBMC per well. […]

Sequence | predicted ranking of the most immunodominant regions | number of donor samples reactive | percent of donor samples reactive
RYTLLHLTNYADETISVAVDV [R1] | most immunogenic | 6 donor samples | over 28%
ITTLYYYTASSAASALLVLIQSTAESA [R4] |  | 5 donor samples | 24%
ATISLENNWSALSKQIQIAST [R5] | most immunogenic | 4 donor samples | 19%
ATEAAKFVFKDAKKK [R2] | relatively less immunogenic | 3 donor samples | 14%
ERLQTAAGKIRENIPLGLPALDSA [R3] |  | 3 donor samples | 14%
